Publication PMC10905675, “INX-315, a Selective CDK2 Inhibitor, Induces Cell Cycle Arrest and Senescence in Solid Tumors” (Cancer Discovery, 2023)

How the values were obtained:
Assay in all cases: SelectScreen Adapta
Type in all cases: biochemical
Settings in all cases: INX-0315 at 100nM
CDK9/cyclin T1 = molecular target: T1, CDK9/cyclin T1 (Homo sapiens, UniProt P50750)
T1 construct: purchased Carna 04-110
Description: (§1) INX-315 was first evaluated in the SelectScreen Biochemical Kinase Profiling at Thermo Fisher Scientific (Madison, WI). The primary screen consisted of INX-315 dosed at a single concentration of 100 nmol/L in 1% DMSO across each platform within the SelectScreen array of assays, LanthaScreen Eu Kinase Binding Assay; AdaptaScreen; and Z'LyteScreen using preestablished conditions at Thermo Fisher Scientific as shown in Supplementary Table S2. […] The follow-up screen consisted of 10-point dose–response curves for INX-315 from 1 µmol/L to 0.0495 nmol/L.

PI4KB (PI4K beta) = molecular target: T2, PI4KB (PI4K beta) (Homo sapiens, UniProt Q9UBF8)
T2 construct: purchased Thermo Fisher Scientific SelectScreen (plus Nanosyn / Reaction Biology for CDK/cyclin lines)
Description: as §1

CDK6/cyclin D1 = molecular target: T3, CDK6/cyclin D1 (Homo sapiens, UniProt Q00534)
T3 construct: purchased Thermo Fisher Scientific SelectScreen (plus Nanosyn / Reaction Biology for CDK/cyclin lines)
Description: as §1

CHUK (IKK alpha) = molecular target: T4, CHUK (IKK alpha) (Homo sapiens, UniProt O15111)
T4 construct: purchased Thermo Fisher Scientific SelectScreen (plus Nanosyn / Reaction Biology for CDK/cyclin lines)
Description: as §1

PIP5K1C = molecular target: T5, PIP5K1C (Homo sapiens, UniProt O60331)
T5 construct: purchased Thermo Fisher Scientific SelectScreen (plus Nanosyn / Reaction Biology for CDK/cyclin lines)
Description: as §1

LRRK2 G2019S FL = molecular target: T6, LRRK2 G2019S FL (Homo sapiens, UniProt Q5S007, G2019S)
T6 construct: purchased Thermo Fisher Scientific SelectScreen (plus Nanosyn / Reaction Biology for CDK/cyclin lines)
Description: as §1

SPHK1 = molecular target: T7, SPHK1 (Homo sapiens, UniProt Q9NYA1)
T7 construct: purchased Thermo Fisher Scientific SelectScreen (plus Nanosyn / Reaction Biology for CDK/cyclin lines)
Description: as §1

[1] = molecular target: T8, PIK3CA E542K/PIK3R1 (p110 alpha E542K/p85 alpha) (Homo sapiens, UniProt P42336, E542K)
T8 construct: purchased Thermo Fisher Scientific SelectScreen (plus Nanosyn / Reaction Biology for CDK/cyclin lines)
Description: as §1

LRRK2 R1441C = molecular target: T9, LRRK2 R1441C (Homo sapiens, UniProt Q5S007, R1441C)
T9 construct: purchased Thermo Fisher Scientific SelectScreen (plus Nanosyn / Reaction Biology for CDK/cyclin lines)
Description: as §1

CDK7/cyclin H/MNAT1 = molecular target: T10, CDK7/cyclin H/MNAT1 (Homo sapiens, UniProt P50613)
T10 construct: purchased Thermo Fisher Scientific SelectScreen (plus Nanosyn / Reaction Biology for CDK/cyclin lines)
Description: as §1

PI4K2B (PI4K2 beta) = molecular target: T11, PI4K2B (PI4K2 beta) (Homo sapiens, UniProt Q8TCG2)
T11 construct: purchased Thermo Fisher Scientific SelectScreen (plus Nanosyn / Reaction Biology for CDK/cyclin lines)
Description: as §1

[2] = molecular target: T12, PIK3CB/PIK3R1 (p110 beta/p85 alpha) (Homo sapiens, UniProt P42338)
T12 construct: purchased Thermo Fisher Scientific SelectScreen (plus Nanosyn / Reaction Biology for CDK/cyclin lines)
Description: as §1

PIP5K1A = molecular target: T13, PIP5K1A (Homo sapiens, UniProt Q99755)
T13 construct: purchased Thermo Fisher Scientific SelectScreen (plus Nanosyn / Reaction Biology for CDK/cyclin lines)
Description: as §1

PIK3C2A (PI3K-C2 alpha) = molecular target: T14, PIK3C2A (PI3K-C2 alpha) (Homo sapiens, UniProt O00443)
T14 construct: purchased Thermo Fisher Scientific SelectScreen (plus Nanosyn / Reaction Biology for CDK/cyclin lines)
Description: as §1

[3] = molecular target: T15, PIK3CA E545K/PIK3R1 (p110 alpha E545K/p85 alpha) (Homo sapiens, UniProt P42336, E545K)
T15 construct: purchased Thermo Fisher Scientific SelectScreen (plus Nanosyn / Reaction Biology for CDK/cyclin lines)
Description: as §1

LRRK2 I2020T = molecular target: T16, LRRK2 I2020T (Homo sapiens, UniProt Q5S007, I2020T)
T16 construct: purchased Thermo Fisher Scientific SelectScreen (plus Nanosyn / Reaction Biology for CDK/cyclin lines)
Description: as §1

CDK4/cyclin D1 = molecular target: T17, CDK4/cyclin D1 (Homo sapiens, UniProt P11802)
T17 construct: purchased ThermoFisher PV4400
Description: as §1

NUAK1 (ARK5) = molecular target: T18, NUAK1 (ARK5) (Homo sapiens, UniProt O60285)
T18 construct: purchased Thermo Fisher Scientific SelectScreen (plus Nanosyn / Reaction Biology for CDK/cyclin lines)
Description: as §1

LRRK2 G2019S = molecular target: T19, LRRK2 G2019S (Homo sapiens, UniProt Q5S007, G2019S)
T19 construct: purchased Thermo Fisher Scientific SelectScreen (plus Nanosyn / Reaction Biology for CDK/cyclin lines)
Description: as §1

SPHK2 = molecular target: T20, SPHK2 (Homo sapiens, UniProt Q9NRA0)
T20 construct: purchased Thermo Fisher Scientific SelectScreen (plus Nanosyn / Reaction Biology for CDK/cyclin lines)
Description: as §1

PI4K2A (PI4K2 alpha) = molecular target: T21, PI4K2A (PI4K2 alpha) (Homo sapiens, UniProt Q9BTU6)
T21 construct: purchased Thermo Fisher Scientific SelectScreen (plus Nanosyn / Reaction Biology for CDK/cyclin lines)
Description: as §1

IRAK1 = molecular target: T22, IRAK1 (Homo sapiens, UniProt P51617)
T22 construct: purchased Thermo Fisher Scientific SelectScreen (plus Nanosyn / Reaction Biology for CDK/cyclin lines)
Description: as §1

[4] = molecular target: T23, PIK3CA/PIK3R3 (p110 alpha/p55 gamma) (Homo sapiens, UniProt P42336)
T23 construct: purchased Thermo Fisher Scientific SelectScreen (plus Nanosyn / Reaction Biology for CDK/cyclin lines)
Description: as §1

PIK3CG (p110 gamma) = molecular target: T24, PIK3CG (p110 gamma) (Homo sapiens, UniProt P48736)
T24 construct: purchased Thermo Fisher Scientific SelectScreen (plus Nanosyn / Reaction Biology for CDK/cyclin lines)
Description: as §1

[5] = molecular target: T25, PIK3CB/PIK3R2 (p110 beta/p85 beta) (Homo sapiens, UniProt P42338)
T25 construct: purchased Thermo Fisher Scientific SelectScreen (plus Nanosyn / Reaction Biology for CDK/cyclin lines)
Description: as §1

PIP4K2A = molecular target: T26, PIP4K2A (Homo sapiens, UniProt P48426)
T26 construct: purchased Thermo Fisher Scientific SelectScreen (plus Nanosyn / Reaction Biology for CDK/cyclin lines)
Description: as §1

CAMK1 (CaMK1) = molecular target: T27, CAMK1 (CaMK1) (Homo sapiens, UniProt Q14012)
T27 construct: purchased Thermo Fisher Scientific SelectScreen (plus Nanosyn / Reaction Biology for CDK/cyclin lines)
Description: as §1

LRRK2 FL = molecular target: T28, LRRK2 FL (Homo sapiens, UniProt Q5S007)
T28 construct: purchased Thermo Fisher Scientific SelectScreen (plus Nanosyn / Reaction Biology for CDK/cyclin lines)
Description: as §1

DAPK1 = molecular target: T29, DAPK1 (Homo sapiens, UniProt P53355)
T29 construct: purchased Thermo Fisher Scientific SelectScreen (plus Nanosyn / Reaction Biology for CDK/cyclin lines)
Description: as §1

[6] = molecular target: T30, PIK3CA/PIK3R1 (p110 alpha/p85 alpha) (Homo sapiens, UniProt P42336)
T30 construct: purchased Thermo Fisher Scientific SelectScreen (plus Nanosyn / Reaction Biology for CDK/cyclin lines)
Description: as §1

PIK3C2G (PI3K-C2 gamma) = molecular target: T31, PIK3C2G (PI3K-C2 gamma) (Homo sapiens, UniProt O75747)
T31 construct: purchased Thermo Fisher Scientific SelectScreen (plus Nanosyn / Reaction Biology for CDK/cyclin lines)
Description: as §1

CDK4/cyclin D3 = molecular target: T32, CDK4/cyclin D3 (Homo sapiens, UniProt P11802)
T32 construct: purchased Thermo Fisher Scientific SelectScreen (plus Nanosyn / Reaction Biology for CDK/cyclin lines)
Description: as §1

GSG2 (Haspin) = molecular target: T33, GSG2 (Haspin) (Homo sapiens, UniProt Q8TF76)
T33 construct: purchased Thermo Fisher Scientific SelectScreen (plus Nanosyn / Reaction Biology for CDK/cyclin lines)
Description: as §1

PIP5K1B = molecular target: T34, PIP5K1B (Homo sapiens, UniProt O14986)
T34 construct: purchased Thermo Fisher Scientific SelectScreen (plus Nanosyn / Reaction Biology for CDK/cyclin lines)
Description: as §1

PIK3C3 (hVPS34) = molecular target: T35, PIK3C3 (hVPS34) (Homo sapiens, UniProt Q8NEB9)
T35 construct: purchased Thermo Fisher Scientific SelectScreen (plus Nanosyn / Reaction Biology for CDK/cyclin lines)
Description: as §1

T12 sequence (P42338 whole entry): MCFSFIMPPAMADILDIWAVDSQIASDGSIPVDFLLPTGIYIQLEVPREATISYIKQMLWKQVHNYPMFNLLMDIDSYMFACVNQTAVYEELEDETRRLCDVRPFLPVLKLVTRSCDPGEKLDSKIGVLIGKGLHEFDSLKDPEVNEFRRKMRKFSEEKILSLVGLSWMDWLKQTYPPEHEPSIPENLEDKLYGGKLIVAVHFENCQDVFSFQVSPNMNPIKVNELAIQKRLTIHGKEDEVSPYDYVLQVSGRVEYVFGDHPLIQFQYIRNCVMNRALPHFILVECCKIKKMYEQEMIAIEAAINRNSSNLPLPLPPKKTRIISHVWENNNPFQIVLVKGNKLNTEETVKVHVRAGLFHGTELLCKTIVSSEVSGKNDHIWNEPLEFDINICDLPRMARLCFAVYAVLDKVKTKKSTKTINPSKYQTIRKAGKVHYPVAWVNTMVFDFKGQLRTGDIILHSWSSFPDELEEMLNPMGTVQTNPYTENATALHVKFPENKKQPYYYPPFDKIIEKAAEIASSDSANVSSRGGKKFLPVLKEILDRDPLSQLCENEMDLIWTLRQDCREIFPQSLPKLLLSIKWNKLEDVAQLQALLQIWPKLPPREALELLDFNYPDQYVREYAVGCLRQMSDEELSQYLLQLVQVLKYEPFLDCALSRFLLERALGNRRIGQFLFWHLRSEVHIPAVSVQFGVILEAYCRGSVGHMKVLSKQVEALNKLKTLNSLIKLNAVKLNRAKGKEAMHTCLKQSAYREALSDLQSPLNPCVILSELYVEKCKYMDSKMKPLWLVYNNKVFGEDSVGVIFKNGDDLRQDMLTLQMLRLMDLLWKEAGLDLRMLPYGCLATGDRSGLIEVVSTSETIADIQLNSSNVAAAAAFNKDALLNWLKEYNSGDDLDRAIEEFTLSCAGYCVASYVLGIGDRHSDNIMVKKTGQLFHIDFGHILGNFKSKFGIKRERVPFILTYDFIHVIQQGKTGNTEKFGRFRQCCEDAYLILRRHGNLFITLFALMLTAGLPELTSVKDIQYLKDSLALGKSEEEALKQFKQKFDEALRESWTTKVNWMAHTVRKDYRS
T12 sequence (P27986 whole entry partner): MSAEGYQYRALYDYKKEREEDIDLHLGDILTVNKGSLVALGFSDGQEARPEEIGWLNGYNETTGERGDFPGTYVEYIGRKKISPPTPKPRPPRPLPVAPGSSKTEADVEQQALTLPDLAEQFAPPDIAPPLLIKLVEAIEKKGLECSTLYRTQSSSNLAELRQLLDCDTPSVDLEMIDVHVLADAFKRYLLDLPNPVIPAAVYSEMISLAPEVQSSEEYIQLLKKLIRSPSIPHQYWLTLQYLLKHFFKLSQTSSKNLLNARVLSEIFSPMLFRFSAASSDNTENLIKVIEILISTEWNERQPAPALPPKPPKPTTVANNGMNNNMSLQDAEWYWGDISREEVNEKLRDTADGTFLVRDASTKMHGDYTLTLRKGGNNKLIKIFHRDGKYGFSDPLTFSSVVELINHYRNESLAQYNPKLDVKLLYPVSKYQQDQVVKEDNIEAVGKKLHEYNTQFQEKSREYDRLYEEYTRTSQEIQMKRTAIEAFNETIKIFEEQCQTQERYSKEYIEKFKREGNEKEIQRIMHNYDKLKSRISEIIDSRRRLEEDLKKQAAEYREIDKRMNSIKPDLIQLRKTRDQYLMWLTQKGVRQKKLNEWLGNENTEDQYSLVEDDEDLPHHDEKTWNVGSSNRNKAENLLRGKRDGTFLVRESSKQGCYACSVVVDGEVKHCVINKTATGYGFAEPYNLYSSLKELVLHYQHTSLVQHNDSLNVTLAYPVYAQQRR
T25 sequence (P42338 whole entry): as the sequence (P42338 whole entry) above
T25 sequence (O00459 whole entry partner): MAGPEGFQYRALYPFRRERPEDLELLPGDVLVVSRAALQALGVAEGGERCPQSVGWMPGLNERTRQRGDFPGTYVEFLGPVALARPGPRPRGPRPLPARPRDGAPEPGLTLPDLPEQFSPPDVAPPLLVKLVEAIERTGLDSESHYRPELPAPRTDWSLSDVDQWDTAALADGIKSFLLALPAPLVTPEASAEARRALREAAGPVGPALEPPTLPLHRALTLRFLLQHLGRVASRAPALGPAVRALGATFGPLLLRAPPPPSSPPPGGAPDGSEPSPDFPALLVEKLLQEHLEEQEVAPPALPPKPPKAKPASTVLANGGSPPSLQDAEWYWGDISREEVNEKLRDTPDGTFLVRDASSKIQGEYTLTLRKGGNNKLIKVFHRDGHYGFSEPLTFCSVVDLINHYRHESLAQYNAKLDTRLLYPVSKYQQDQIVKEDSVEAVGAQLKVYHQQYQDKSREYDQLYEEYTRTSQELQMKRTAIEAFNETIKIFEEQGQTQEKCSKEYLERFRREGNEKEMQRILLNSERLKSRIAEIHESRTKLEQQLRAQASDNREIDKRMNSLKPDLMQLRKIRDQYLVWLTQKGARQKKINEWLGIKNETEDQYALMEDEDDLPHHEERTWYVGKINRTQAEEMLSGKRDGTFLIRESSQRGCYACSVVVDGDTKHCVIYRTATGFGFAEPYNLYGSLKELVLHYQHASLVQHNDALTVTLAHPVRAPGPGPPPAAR
T22 sequence (P51617 whole entry): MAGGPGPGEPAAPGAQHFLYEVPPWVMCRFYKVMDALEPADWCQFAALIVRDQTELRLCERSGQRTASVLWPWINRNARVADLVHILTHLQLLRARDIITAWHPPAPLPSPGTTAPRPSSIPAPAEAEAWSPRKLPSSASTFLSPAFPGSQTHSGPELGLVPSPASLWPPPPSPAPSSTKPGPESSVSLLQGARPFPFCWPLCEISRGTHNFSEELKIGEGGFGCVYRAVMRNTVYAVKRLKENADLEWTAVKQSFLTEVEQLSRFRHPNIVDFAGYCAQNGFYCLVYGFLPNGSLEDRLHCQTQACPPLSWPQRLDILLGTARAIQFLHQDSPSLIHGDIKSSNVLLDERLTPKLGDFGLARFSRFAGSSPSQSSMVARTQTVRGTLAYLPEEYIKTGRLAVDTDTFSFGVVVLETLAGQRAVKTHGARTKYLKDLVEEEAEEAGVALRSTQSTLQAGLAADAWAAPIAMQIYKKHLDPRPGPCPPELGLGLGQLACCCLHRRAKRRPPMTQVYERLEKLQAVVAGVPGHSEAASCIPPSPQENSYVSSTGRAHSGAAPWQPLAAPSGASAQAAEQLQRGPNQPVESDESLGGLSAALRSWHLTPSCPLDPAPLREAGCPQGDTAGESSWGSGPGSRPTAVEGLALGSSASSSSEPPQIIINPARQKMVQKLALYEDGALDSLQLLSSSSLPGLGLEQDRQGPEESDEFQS
T4 sequence (O15111 whole entry): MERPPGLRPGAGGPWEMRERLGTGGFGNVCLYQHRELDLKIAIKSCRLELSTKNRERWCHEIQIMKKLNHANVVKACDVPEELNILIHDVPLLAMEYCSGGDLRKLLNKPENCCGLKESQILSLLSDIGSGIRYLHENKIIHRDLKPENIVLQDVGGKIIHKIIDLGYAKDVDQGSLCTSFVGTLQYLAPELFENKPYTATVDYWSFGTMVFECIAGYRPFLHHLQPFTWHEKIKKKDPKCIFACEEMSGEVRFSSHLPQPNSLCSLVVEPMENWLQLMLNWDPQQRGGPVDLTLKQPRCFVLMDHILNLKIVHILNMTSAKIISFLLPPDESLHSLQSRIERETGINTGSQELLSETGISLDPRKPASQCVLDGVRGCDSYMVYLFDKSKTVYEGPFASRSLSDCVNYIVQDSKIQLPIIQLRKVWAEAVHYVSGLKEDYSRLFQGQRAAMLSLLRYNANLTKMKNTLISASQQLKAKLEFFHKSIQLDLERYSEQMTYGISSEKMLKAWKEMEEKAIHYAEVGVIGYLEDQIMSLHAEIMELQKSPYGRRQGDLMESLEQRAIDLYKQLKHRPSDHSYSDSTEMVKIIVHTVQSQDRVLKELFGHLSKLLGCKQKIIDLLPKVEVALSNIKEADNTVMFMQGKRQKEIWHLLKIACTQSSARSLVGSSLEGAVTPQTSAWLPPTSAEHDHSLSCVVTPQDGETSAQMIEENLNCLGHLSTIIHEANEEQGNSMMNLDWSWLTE
T18 sequence (O60285 whole entry): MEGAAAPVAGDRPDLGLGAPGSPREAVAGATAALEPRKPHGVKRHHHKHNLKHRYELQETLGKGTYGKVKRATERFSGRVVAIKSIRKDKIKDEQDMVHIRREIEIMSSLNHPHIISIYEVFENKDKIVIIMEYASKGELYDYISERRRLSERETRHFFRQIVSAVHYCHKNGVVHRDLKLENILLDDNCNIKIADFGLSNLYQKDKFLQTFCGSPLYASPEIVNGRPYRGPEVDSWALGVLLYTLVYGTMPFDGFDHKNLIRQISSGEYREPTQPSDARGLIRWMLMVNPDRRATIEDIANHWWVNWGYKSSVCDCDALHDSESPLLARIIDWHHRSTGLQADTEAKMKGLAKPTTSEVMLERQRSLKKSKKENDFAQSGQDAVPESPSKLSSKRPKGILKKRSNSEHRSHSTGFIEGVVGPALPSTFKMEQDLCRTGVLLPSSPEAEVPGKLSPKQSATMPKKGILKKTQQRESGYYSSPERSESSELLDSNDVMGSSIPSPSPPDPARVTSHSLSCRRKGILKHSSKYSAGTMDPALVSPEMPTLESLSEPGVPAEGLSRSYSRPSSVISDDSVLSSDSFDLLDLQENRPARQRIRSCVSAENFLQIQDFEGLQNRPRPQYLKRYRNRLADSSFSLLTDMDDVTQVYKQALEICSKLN
T7 sequence (Q9NYA1 whole entry): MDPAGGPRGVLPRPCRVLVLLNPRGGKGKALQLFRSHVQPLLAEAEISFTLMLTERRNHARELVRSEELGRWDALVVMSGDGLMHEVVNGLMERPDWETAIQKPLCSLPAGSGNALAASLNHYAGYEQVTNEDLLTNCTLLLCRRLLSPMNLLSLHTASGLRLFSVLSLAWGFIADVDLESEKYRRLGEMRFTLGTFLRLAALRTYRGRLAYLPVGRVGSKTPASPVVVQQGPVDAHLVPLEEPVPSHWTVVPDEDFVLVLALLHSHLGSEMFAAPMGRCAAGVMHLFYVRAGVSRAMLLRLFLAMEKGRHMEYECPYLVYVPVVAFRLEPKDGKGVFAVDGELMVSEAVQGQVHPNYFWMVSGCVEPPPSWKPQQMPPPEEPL

Compound: NS(=O)(=O)c1ccc(Nc2ncc3cc4n(c3n2)C2(CCCCC2)C(=O)NN4)cc1 [INX-315]
- inhibition at 0.1 µM (CDK9/cyclin T1): 52%
- inhibition at 0.1 µM (PI4KB (PI4K beta)): 2%
- inhibition at 0.1 µM (CDK6/cyclin D1): 15%
- inhibition at 0.1 µM (CHUK (IKK alpha)): -7%
- inhibition at 0.1 µM (PIP5K1C): 4%
- inhibition at 0.1 µM (LRRK2 G2019S FL): 40%
- inhibition at 0.1 µM (SPHK1): -15%
- inhibition at 0.1 µM [1]: -1%
- inhibition at 0.1 µM (LRRK2 R1441C): 22%
- inhibition at 0.1 µM (CDK7/cyclin H/MNAT1): -3%
- inhibition at 0.1 µM (PI4K2B (PI4K2 beta)): -2%
- inhibition at 0.1 µM [2]: -17%
- inhibition at 0.1 µM (PIP5K1A): 6%
- inhibition at 0.1 µM (PIK3C2A (PI3K-C2 alpha)): -1%
- inhibition at 0.1 µM [3]: 0%
- inhibition at 0.1 µM (LRRK2 I2020T): 28%
- inhibition at 0.1 µM (CDK4/cyclin D1): 24%
- inhibition at 0.1 µM (NUAK1 (ARK5)): 68%
- inhibition at 0.1 µM (LRRK2 G2019S): 34%
- inhibition at 0.1 µM (SPHK2): -19%
- inhibition at 0.1 µM (PI4K2A (PI4K2 alpha)): 0%
- inhibition at 0.1 µM (IRAK1): 6%
- inhibition at 0.1 µM [4]: -2%
- inhibition at 0.1 µM (PIK3CG (p110 gamma)): -8%
- inhibition at 0.1 µM [5]: -14%
- inhibition at 0.1 µM (PIP4K2A): 7%
- inhibition at 0.1 µM (CAMK1 (CaMK1)): -17%
- inhibition at 0.1 µM (LRRK2 FL): 37%
- inhibition at 0.1 µM (DAPK1): -8%
- inhibition at 0.1 µM [6]: 11%
- inhibition at 0.1 µM (PIK3C2G (PI3K-C2 gamma)): 6%
- inhibition at 0.1 µM (CDK4/cyclin D3): 22%
- inhibition at 0.1 µM (GSG2 (Haspin)): 4%
- inhibition at 0.1 µM (PIP5K1B): 38%
- inhibition at 0.1 µM (PIK3C3 (hVPS34)): 7%
